Data taken from publication PMC6152040, “Isolation and Characterization of Aphidicolin Derivatives from Tolypocladium inflatum” (Molecules : A Journal of Synthetic Chemistry and Natural …, 2017).

Assays:
Assay type in all cases: cell-based
[1] = system: A549 lung adenocarcinoma cells; assay: MTS cytotoxicity assay, A549; conditions: Homo sapiens, MTS method, 72 h incubation
Description: (§1) Compounds 1, 4–8 were tested for the cytotoxicities against A549, CNE1-MP1, A375, and MCF-7 human cancer cell lines using MTS method.
(§2) Cytotoxic activity was tested against four human cancer cell lines (A549, CNE1-MP1, A375, and MCF-7) using the MTS method. For the MTS assay, the CellTiter 96® AQueous One Solution Reagent (Promega, Madison, WI, USA) was used following the manufacturer’s instruction. In a 96-well plate, each well was plated with 2–5 × 10^3 cells (It depends on the cell multiplication rate). […] The plate was incubated for 72 h at 37 °C in a humidified, 5% CO2 atmosphere. Proliferation assessed by adding 20 μL of MTS to each well in dark followed by a 90 min incubation at 37 °C. The assay plate was read at 490 nm using a microplate reader (Bio-Rad, Hercules, CA, USA). The assay was run in triplicate.

[2] = system: CNE1-LMP1 stable oncoprotein LMP1 integrated nasopharyngeal carcinoma cells; assay: MTS cytotoxicity assay, CNE1-LMP1; conditions: Homo sapiens, MTS method, 72 h incubation
Description: as §1, §2

[3] = system: A375 malignant melanoma cells; assay: MTS cytotoxicity assay, A375; conditions: Homo sapiens, A-375, MTS method, 72 h incubation
Description: as §1, §2

[4] = system: MCF-7 breast cancer cells; assay: MTS cytotoxicity assay, MCF-7; conditions: Homo sapiens, MCF7, MTS method, 72 h incubation
Description: as §1, §2

[5] = system: HaCaT (human keratinocyte) cells; assay: MTS cytotoxicity assay, HaCaT negative control cells; conditions: MTS method, 72 h incubation

| Compound | IC50 [1] | IC50 [2] | IC50 [3] | IC50 [4] | IC50 [5] |
| --- | --- | --- | --- | --- | --- |
| CC(=O)OC[C@@]1(O)CC[C@]23C[C@H]1C[C@@H]2CC[C@H]1[C@](C)(CO)[C@H](O)CC[C@@]13C [Compound 5, aphidicolin-17-monoacetate] | 5.2 µM | 4 µM | 40.5 µM | 66.2 µM | 8 µM |
| C=C[C@H]1C[C@@H](C)C[C@@H](C)[C@@H]1c1c(O)ccn(O)c1=O [Compound 7 and 8, pyridoxatin rotamers A (7) and B (8)] | 0.44 µM | 0.2 µM | 0.1 µM | 0.17 µM | > 47.5 µM |
| CC(=O)O[C@H]1C(=O)[C@@]2(C)[C@H]([C@H](OC(=O)c3ccccc3)[C@]3(O)C[C@H](OC(=O)[C@H](O)[C@@H](NC(=O)c4ccccc4)c4ccccc4)C(C)=C1C3(C)C)[C@]1(OC(C)=O)CO[C@@H]1C[C@@H]2O [paclitaxel, reference compound] | 0.03 µM | 0.0042 µM | 0.0089 µM | 0.014 µM | 0.024 µM |
| C[C@@]1(CO)[C@H](O)CC[C@@]2(C)[C@H]1CC[C@H]1C[C@@H]3C[C@@]12CC[C@]3(O)CO [Compound 4, aphidicolin] | 16.2 µM | 3.12 µM | 37.3 µM | 42.3 µM | 10.4 µM |
| CC12COC(c3ccccc3)OC1CCC1(C)C2CCC2CC3CC21CCC3(O)CO (stereo not drawn) [Compound 1, Inflatin G] | 68.7 µM | 35.4 µM | 39.8 µM | 35.2 µM | 42.6 µM |
| COc1cc(=O)oc(C(C)[C@H](C)O)c1C (stereo partly drawn) [Compound 6, gulypyrone A] | > 100 µM | > 100 µM | > 100 µM | > 100 µM | > 100 µM |
